Data taken from patent US11618894B2, “Bacteria engineered to reduce hyperphenylalaninemia” (Synlogic Operating Company, Inc., priority 2015, dated 2023).
One block for each molecule: values may come before it.

Experiments:
[1] = Kinetics of phenylalanine in the enterocirculation model; assay type: in vivo, PKU (enu2) mice; settings: subcutaneous 0.1 mg/g phenylalanine
Description: To characterize the phenylalanine enterocirculation model, first the kinetics of serum levels of phenylalanine post phenylalanine challenger were assessed.
On day −6, PKU (enu2) mice were placed on phenylalanine-free chow and water (+)Phe (0.5 g/L)
On day 1, animals were bled to get T=0 (pre Phe challenge), and animals were randomized into two groups based on phenylalanine levels measured. The first treatment group (n=15) included mice for use for the 2, 6 and 24 hour post phenylalanine challenge time points; Group 2 (n=15) included mice for the 4 and 8 hour post phenylalanine challenge time points.
Mice were pre-weighed to obtain the average weight for each group. Phenylalanine was dosed at a concentration equal to average group weight. Animals were dosed subcutaneously with 0.1 mg/g phenylalanine. In Group 1, animals were bled at 2, 6 and 24 h post Phe challenge. In Group 2, animals were bled at 4 and 8 h post Phe challenge. Whisker plots in FIG. 38A and FIG. 38B show distribution of mouse blood phenylalanine levels (both overall phenylalanine levels (FIG. 38A) and change in phenylalanine levels from T0 (FIG. 38B). Phenylalanine levels were stably elevated over at least a 6 hour period. […]
On day −6, PKU mice were placed on phenylalanine-free chow and water (+)Phe (0.5 g/L). […] Animals were randomized into three treatment groups based on phenylalanine levels measured. […]

[2] = Oral gavage of TCA in PKU mice, recovery of TCA and hippuric acid in urine, feces and blood
[3] = test system: hippurate; assay: Kinetics of hippurate recovery in urine, gavage of live cells vs pure TCA; assay type: in vivo, mice
Text: FIG. 56 depicts a graph showing hippurate recovery in urine, and comparing kinetics of the generation of hippuric acid from phenylalanine through the gavage of live cells to the generation of hippuric acid derived from pure TCA gavage.

[4] = Turnover of orally gavaged TCA into hippuric acid, recovery in urine; assay type: in vivo, Pah ENU2/2 mice
Description: To determine whether hippuric acid detection in the urine is suitable as a measure for in vivo cell activity and a potential biomarker, the extent of turnover of TCA into hippuric acid was assessed by oral gavage of various concentrations of TCA in PKU mice and subsequent measurement of TCA and hippuric acid by LC/MS.
Various TCA concentrations were administered by oral gavage.
Urine and feces were transferred to appropriate tubes and store samples on ice until processed for MS analysis.
Next, the kinetics of conversion of TCA to hippuric acid was assessed in a time course post pure TCA oral gavage. […] TCA concentrations were administered by oral gavage. […] Urine was transferred to appropriate tubes and store samples on ice until processed for MS analysis.

[5] = oral gavage 0.0125, 0.025, 0.05 or 0.1 mg/g TCA, 4 hours after gavage

period over which blood phenylalanine levels were stably elevated [1]: ≥ 6 h
SMILES: N[C@@H](Cc1ccccc1)C(=O)O [Phenylalanine, phenylalanine]

SMILES: O=C(O)/C=C/c1ccccc1 [TCA, Trans-cinnamic acid]
recovery of TCA in the form of hippurate in urine [2, 5]: nearly full recovery
TCA and hippurate in blood and feces ([2]; oral gavage 0.0125-0.1 mg/g TCA, 4 hours post gavage): Insignificant amounts
time of rapid decrease in hippurate recovery in urine post collection start [3]: ≤ 15 min
recovery of TCA in the form of hippurate in the urine [4, 5]: nearly full recovery
TCA and hippurate detected in blood and feces ([4]; oral gavage of TCA, 4 h, data not shown): Insignificant amounts
